Results: patent US10201590B2, “Treatment of ocular disorders with anti-connexin proteins and mimetics” (CoDa Therapeutics, Inc., priority 2005, dated 2019)
“Also recorded” adds a separate entry of the source.

What was measured:
spinal cord segments = experiment: Prevention of oedema (swelling) in cultured spinal cord segments; assay type: cell-based, rat; conditions: for % swelling of cord segments: 500 micromolar peptide, 24 hours, control segments 21-23%
Protocol: FIGS. 1A and 1B show rat spinal cord segments 24 hours after placing into organotypic culture. In the control cord (FIG. 1A) significant swelling is observed at the cut ends (dotted lines mark the original cuts).
In both cases, the oedema can be blocked using antisense oligodexoynucleotides (ODNs) which prevent translation of the gap junction protein Connexin 43 (FIG. 1B).
The system described in Example 1 was used to examine the effects of the peptides VDCFLSRPTEKT (SEQ ID NO:35) and SRPTEKTIFII (SEQ ID NO:36) on cultured spinal cord segments to test their ability to block swelling.
The peptide QQPGCENVCYDK (SEQ ID NO:39) was used a negative control because it allowed dye uptake in the slice cultures described above, and was thus believed to not be able to block oedema in the segments. DMSO was again used as an additional control.
5 mm long spinal cord segments were placed in separate wells of a 24 well plate in HBSS. The segments were held to the bottom of the well using a small drop of Superglue. The HBSS was removed and 500 micromolar peptide (final concentration) added to media (no peptide for media alone or DMSO controls). The plates were incubated for 24 hours, the media removed and the tissue fixed with Bouin's fixative for 24 hours. Analysis involved photographing cord segments from above, with Image J used to calculate the total area of the cord segment compared with the area of swelling at the cut ends of the segments. Swelling (oedema) was calculated as (cultured area−original area divided by original area) to give % swelling. Single factor Analysis of Variance was used to determine statistical significance, with cut-off level for significance at p=0.05.
In this case a dose response was determined with final concentration of peptides used at 5, 10, 50 250 and 500 micromolar.

connexin hemichannels = biological target: T1, connexin hemichannels (Rattus norvegicus, UniProt P08050); experiment: Blockage of dye (Lucifer Yellow) uptake by cells in spinal cord slices; assay type: cell-based; conditions: 500 micromolar peptide, slices incubated four hours, then Lucifer Yellow 30 minutes
T1 construct: leads to the expression of connexin hemichannels; from tissue; host or cells: rat (Wistar p7) spinal cord, 500 micron slices in culture
Protocol: Two functional tests were carried out using peptides. These functional test were (i) blockage of dye (Lucifer Yellow) uptake by cells in spinal cord slices, and (ii) prevention of oedema in spinal cord segments (using connexin 43 specific antisense as a positive control). All peptides used were synthesised by Sigma-Genosys (Australia).
Lucifer Yellow is a small water soluble, fixable, dye able to pass from cell to cell via gap junction channels, but not across the cell membrane. The addition of Lucifer Yellow to the extracellular medium makes it is possible to check for the presence of open gap junction hemichannels. The dye will appear in the cytoplasm of cells which are expressing open channels.
Wistar p7 rats were anesthetized with carbon dioxide and immediately decapitated. The spinal cord was excised and transferred to cold Hank's balanced salt solution (HBSS) at pH 7.4. Excess branch nerves and ligaments were removed and the cord transferred to a manual tissue chopper and a series of 500 micron thick slices cut. The damage caused by the slicing induces connexin 43 upregulation through the entire slice (exacerbated by the gap junction mediated bystander effect), and leads to the expression of connexin hemichannels. Slices were placed onto 3 cm diameter Millipore inserts in 24 well plates and cultured in the presence of mimetic peptides in the media. The final concentration for all 9 peptides tested was 500 micromolar. Controls were; no peptide added, or with 1% ethanol or 1% DMSO added as some peptides were re-dissolved in these compounds (peptides were received lyophilised). Some slices were also treated at this time with connexin 43 specific antisense oligodeoxynucleotides in 30% Pluronic F-127 gel or with gel only, as control experiments.
Slices were incubated for four hours at 37 degrees C., and then 2.5 mg per ml Lucifer Yellow was added to each well for 30 minutes (in the dark). The tissues were then rinsed twice in PBS, with three further 10 minute washes, and the slices fixed with 4% paraformaldehyde. They were then viewed using a Leica TCS4D laser scanning confocal microscope to assess dye uptake into cells, or not.

connexin 43 hemichannels = experiment: Perinatal sheep model of cerebral ischaemia, i.c.v. infusion of mimetic peptide; assay type: in vivo
Protocol: The infusion in these animals was continued until 72 h after ischaemia. […] Seizures resolved by approximately 48 h.
Dosages of about 5 μmol/kg brain, 50 μmol/kg and 250 μmol/kg brain weight are also possible. For intravenous (systemic delivery) the effect of log-order increases in plasma concentrations can be used to determine an appropriate dose, starting with loading doses to achieve 0.5 μmol/L (mean fetal blood volume is approximately 350 ml in our perinetal sheep at this age), then 5, 10, 50, 250, 500 and 5000 μM.
A Romney-Suffolk cross fetal sheep was instrumented between 117 to 124 days of gestation (0.85 term) under general anaesthesia as described elsewhere in detail (Gerrits et al, Pediatr Res 57(3):342-6, (2005); Guan et al., Neuroscience 95(3):831-839, (1999); Guan et al., J Cereb Blood Flow Metab 21(5):493-502, (2001); Gunn et al., J Clin Invest 99(2):248-256, (1997), Gunn et al., Pediatrics 102(5):1098-1106, (1998), Gunn et al., Pediatr Res 46(3):274-280, (1999); Roelfsema et al., J Cereb Blood Flow Metab 24(8):877-886, (2004)). Instrumentation included brachial artery and vein catheters, EKG electrodes, an inflatable occluder around a fetal carotid artery (Gunn et al., 1997; Roelfsema et al., 2004), parietal EEG electrodes 5 and 15 mm anterior, and 10 mm lateral to bregma, a pair of electrodes placed lateral to these to measure cortical impedance (a measure of cytotoxic oedema (Gunn et al., 1997) and a 17-mm-long left i.c.v. cannula 4 mm anterior and 6 mm lateral to bregma. The instrumentation was exteriorised to the maternal flank, uterine and abdominal walls closed, and fetal vascular catheters heparinised (20 IU/ml). The maternal wound was infiltrated with a long acting local anaesthetic bupivacaine (100 mg/20 ml).
After 5 days recovery, fetal cerebral hypoperfusion was induced by a 30 minute period of bilateral carotid artery occlusion (Gunn et al., 1997; Roelfsema et al., 2004; Tan et al., Ann Neurol 32(5):677-682, (1992); Tan et al., Pediatr Res 39(5):791-797, (1996)). […]

[1] = test system: glial fibrillary acidic protein (GFAP) expression; experiment: Immunohistochemical analysis of GFAP (astrocytosis) in spinal cord segments; assay type: cell-based, rat; conditions: for Area of GFAP label: 24 hours, control 2450
Protocol: Table 7: Areas of GFAP label in images taken in spinal cord 24 hours after slicing. Control cords have high levels of GFAP indicating an inflammatory response and greater bystander effect than the treated segments.

[2] = near-term fetal sheep, i.c.v. infusion from 90 min after 30 min ischaemia until 72 h

T1 sequence (P08050 2-382): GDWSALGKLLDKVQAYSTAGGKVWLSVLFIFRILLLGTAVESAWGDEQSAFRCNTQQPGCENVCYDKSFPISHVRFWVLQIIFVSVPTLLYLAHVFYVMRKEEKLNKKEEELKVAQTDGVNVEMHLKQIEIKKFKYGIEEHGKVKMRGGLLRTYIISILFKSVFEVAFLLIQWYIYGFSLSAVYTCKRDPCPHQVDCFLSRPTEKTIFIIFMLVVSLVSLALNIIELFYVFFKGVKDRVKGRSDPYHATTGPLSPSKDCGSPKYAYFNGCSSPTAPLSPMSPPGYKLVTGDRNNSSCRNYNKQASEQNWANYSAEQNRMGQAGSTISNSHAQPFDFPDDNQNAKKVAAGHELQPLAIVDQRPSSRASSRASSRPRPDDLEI

## QQPGCENVCYDK [connexin 43 mimetic peptide, E1; used as negative control]
Spinal cord segments
  % swelling of cord segments: 23%
Connexin hemichannels
  dye (Lucifer Yellow) uptake / block of hemichannels: comparable with control slices; also recorded: did not block hemichannels

## SLSAVYTCKRDPCPHQ [connexin 43 mimetic peptide, E2]
Connexin hemichannels
  dye (Lucifer Yellow) uptake / block of hemichannels: comparable with control slices

## LLIQWYIGFSL [connexin 43 mimetic peptide, E2]
Connexin hemichannels
  dye (Lucifer Yellow) uptake / block of hemichannels: comparable with control slices

## LGTAVESAWGDEQ [connexin 43 mimetic peptide, M1 & E1]
Connexin hemichannels
  dye (Lucifer Yellow) uptake / block of hemichannels: comparable with control slices

## VDCFLSRPTEKT [connexin 43 mimetic peptide, E2]
Spinal cord segments
  % swelling of cord segments: 15%
Connexin hemichannels
  dye (Lucifer Yellow) uptake / block of hemichannels: block hemichannels
Connexin hemichannels; listed as SEQ ID NO: 35
  dye (Lucifer Yellow) uptake / block of hemichannels: capable of preventing and/or blocking and/or closing the opening of the hemichannels

## VCYDKSFPISHVR [connexin 43 mimetic peptide, E1]
Connexin hemichannels
  dye (Lucifer Yellow) uptake / block of hemichannels: comparable with control slices

## QSAFRCNTQQPG [connexin 43 mimetic peptide, E1]
Connexin hemichannels
  dye (Lucifer Yellow) uptake / block of hemichannels: comparable with control slices

## FEVAFLLIQWI [connexin 43 mimetic peptide, M3 & E2]
Connexin hemichannels
  dye (Lucifer Yellow) uptake / block of hemichannels: comparable with control slices

## SRPTEKTIFII [connexin 43 mimetic peptide, E2 & M4]
Connexin 43 hemichannels; 5 μmol/kg brain weight in 1 ml artificial CSF i.c.v. over one hour, then 1 ml per day for 72 hours
  effect in perinatal sheep experiment: significant effect
Connexin 43 hemichannels; [2]
  cortical impedance (cell swelling, cytotoxic oedema): markedly delayed and attenuated rise in cerebral impedance
  seizures after cerebral ischaemia: changed seizures from continuous to a later onset of discrete, separate seizure events
[1]; 5 micromolar
  Area of GFAP label: 300 square units
[1]; 50 micromolar
  Area of GFAP label: 950 square units
[1]; 250 micromolar
  Area of GFAP label: 1000 square units
[1]; 500 micromolar
  Area of GFAP label: 750 square units
[1]; 24 hours in culture
  astrocytosis (GFAP expression): reduced astrocytosis
  most effective concentration at preventing the inflammatory response (GFAP): 5 µM
Spinal cord segments; 50 micromolar, repeat experiments
  blocking of oedema at middle range concentration: somewhat less effective
Spinal cord segments
  % swelling of cord segments: 17%
Spinal cord segments; dose response 5, 10, 50 250 and 500 micromolar, vs media alone p=0.001
  most effective concentration for blocking of oedema (least oedema): 5 µM
Connexin hemichannels
  dye (Lucifer Yellow) uptake / block of hemichannels: block hemichannels
Connexin hemichannels; listed as SEQ ID NO: 36
  dye (Lucifer Yellow) uptake / block of hemichannels: capable of preventing and/or blocking and/or closing the opening of the hemichannels
